Test results as given in PubChem BioAssay (NCI).
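These data come from cells grown in 96-well plates and exposed to compound for 48 hours at five concentrations. GI50 marks 50% less growth. The concentration for full growth arrest is given as TGI.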

Columns and labels:
Test in all cases: growth of human tumour cells (NCI), 48 h
HCT-15 colon = system: HCT-15 colon
NCI/ADR-RES ovarian = system: NCI/ADR-RES ovarian
MDA-MB-231 breast = system: MDA-MB-231 breast
CCRF-CEM leukemia = system: CCRF-CEM leukemia
MALME-3M melanoma = system: MALME-3M melanoma
HCC-2998 colon = system: HCC-2998 colon
OVCAR-3 ovarian = system: OVCAR-3 ovarian
NCI-H522 lung = system: NCI-H522 lung
NCI-H460 lung = system: NCI-H460 lung
SW-620 colon = system: SW-620 colon

Structure (SMILES)	TGI (HCT-15 colon) [µM]	TGI (NCI/ADR-RES ovarian) [µM]	TGI (MDA-MB-231 breast) [µM]	TGI (CCRF-CEM leukemia) [µM]	TGI (MALME-3M melanoma) [µM]	TGI (HCC-2998 colon) [µM]	TGI (OVCAR-3 ovarian) [µM]	TGI (NCI-H522 lung) [µM]	TGI (NCI-H460 lung) [µM]	TGI (SW-620 colon) [µM]	GI50 (HCT-15 colon) [µM]	GI50 (NCI/ADR-RES ovarian) [µM]	GI50 (MDA-MB-231 breast) [µM]	GI50 (CCRF-CEM leukemia) [µM]	GI50 (MALME-3M melanoma) [µM]	GI50 (HCC-2998 colon) [µM]	GI50 (OVCAR-3 ovarian) [µM]	GI50 (NCI-H522 lung) [µM]	GI50 (NCI-H460 lung) [µM]	GI50 (SW-620 colon) [µM]
O=C1OC(c2ccc(O)c(-c3ccccc3)c2)(c2ccc(O)c(-c3ccccc3)c2)c2c(Cl)c(Cl)c(Cl)c(Cl)c21	> 100	> 100	> 100	> 100	> 100	> 100	> 100	> 100	> 100	> 100	–	–	–	–	–	–	–	–	–	–
CN1CCN(c2ccc3nc(-c4cc(C(C)(C)C)c(O)c(C(C)(C)C)c4)[nH]c3c2)CC1	3.49	20	4.31	5.83	2.95	3.43	14	4.33	3.7	4.06	1.71	5.48	2.09	2.22	1.55	1.85	4.06	2.11	1.99	2.33
C#C[C@]1(O)CC[C@H]2[C@@H]3CC=C4c5sc(N=C(N)N)nc5CC[C@]4(C)[C@H]3CC[C@@]21C	1.98	3.59	2.66	3.43	1.19	3.1	2.82	3.67	2.5	1.96	0.525	1.44	1.14	0.365	0.338	1.59	1.36	1.63	1.05	0.541
COc1ccc(-c2n[nH]nc2-c2csc3ccccc23)cc1OC	14.7	23.2	35.5	32.9	62.1	19.4	7.63	2.81	18.9	43.9	1.67	2.39	3.21	3.29	13.3	4.21	1.94	0.601	3.56	3.09
CS(=O)(=O)CCNCc1ccc(-c2ccc3ncnc(Nc4ccc(OCc5cccc(C(F)(F)F)c5)cc4)c3c2)o1	10.6	> 25	14.1	> 25	10.5	8.26	11.2	8.91	11.8	10.1	4.71	7.19	6.34	6.14	5.28	4.46	5.15	4.8	5.31	5.2
COc1cnc2c(c1)C(=O)c1c-2n(CCCn2ccnc2)c(=O)c2cc(Cl)ccc12	> 100	12.5	> 100	> 100	37.4	> 100	38.8	10.1	0.271	> 100	0.159	0.03	1.27	< 0.01	0.293	0.382	0.129	0.0276	< 0.01	0.0262
CCCCCCCCCCCCCCCc1cc(O)ccc1N	> 100	68.8	> 100	–	> 100	> 100	> 27.9	0.452	> 100	> 100	45.8	5.81	> 31.1	0.0518	> 62.1	> 100	5.1	0.127	> 100	> 100
Cn1c(COC(=O)N2CCCCC2)nc2c(N3CCOCC3)nc(-c3ccccc3)nc21	0.509	5.72	2.27	1.48	2.72	3.04	0.39	1.76	3.27	0.539	0.212	1.67	1.02	0.307	1.39	1.58	0.182	0.406	1.58	0.235
COc1cc(CSc2nc3ccc(C)cc3c(=O)n2Cc2ccccc2)cc(OC)c1OC	> 100	14.6	> 100	> 100	34.3	> 100	7.02	2.53	> 100	> 100	0.773	1.51	3.26	2.37	3.09	3.96	0.956	0.327	2.26	1.56
CC(ONC(=O)c1cc(C(F)(F)F)cc(C(F)(F)F)c1)C(=O)Nc1ccc(Cl)cc1 (stereo not drawn)	20	41.6	36.5	5.38	13.6	17	> 76.6	22.4	15	23.7	4.98	6.2	8.7	1.09	3.83	4.16	4.25	4.14	3.5	5.64
O=C(O)C1C2CC3C(OC(=O)C31)C2Br (stereo not drawn)	> 100	> 100	> 100	> 100	> 100	–	> 100	> 100	> 100	> 100	–	–	–	–	–	–	–	–	–	–
O=C(COc1cccc(/C=C2\COc3ccccc3C2=O)c1)Nc1nccs1	10.2	21.8	17	4.91	3.49	3.48	3.51	3.19	31.6	3.98	3.11	4.97	3.55	1.63	1.82	1.95	2.03	1.52	6.92	1.97
CCC(Sc1nnc2c3ccccc3n(CC)c2n1)C(=O)Nc1ccccc1OC (stereo not drawn)	> 100	> 100	> 100	> 100	> 100	> 100	> 79.4	> 100	> 100	> 100	66.8	> 100	52.5	> 94.9	> 100	> 100	8.49	> 100	> 100	> 100
